Key:
B-Raf = biological target: T1, B-Raf (Homo sapiens, UniProt P15056); assay: In vitro kinase activity; type: biochemical; conditions: percentage of control assays without compound, mean of duplicate
T1 construct: in some cases SignalChem; host or cells: Sf9 insect cells (baculovirus)
Procedure: (§1) To better understand the mechanism of action of the compounds of the present invention, but in no way a limitation; the effects of HSB-13 and ASK-2a on 20 different kinases were examined in vitro. At 500 nM concentration, ASK-2a inhibited the kinase activities of GSK3α, GSK3β, p38α, p38β, JNK3, MLK3, and B-Raf substantially. […] As described above, ASK-2a protects cerebellar granule neurons against LK-induced death but is ineffective against HCA-induced toxicity of HT-22 cells. In contrast, HSB-13 is protective in both paradigms. […] Previous studies have established that CDK inhibitors can protect neurons against a number of different apoptotic stimuli.
(§2) The activity of each kinase was measured in vitro in the presence either 100 nM or 500 nM ASK-2a. Kinase activity is expressed as a percentage of that in control assays (without ASK-2a). The values are mean of assays performed in duplicate. Substantial inhibition of kinase activity (>20%) is in bold type.
(§3) Table 3: Effect of HSB-13 at 500 nM on 20 different kinases measured in vitro. Kinase activity is expressed as a percentage of that in control assays (without HSB-13). The values are mean of assays performed in duplicate. Substantial inhibition of kinase activity (>20%) is in bold type.
(§4) Effect of chemical compounds c-Raf and B-Raf purified from insect cells. In vitro kinase assays were performed using purified kinase (expressed by baculovirus in Sf9 insect cells) and synthetic substrates under standard conditions using the Kinase Profiling service of Upstate Biotechnology. Briefly, for each assay 5-10 mU of purified kinase is incubated with the chemical compound (0.1-1 uM concentration) in a buffer containing 8 mM MOPS, pH 7.2, 0.2 mM EDTA, 10 mM Mg Acetate and [γ-^33P-ATP] for 40 min at room temperature. MBP is used as substrate. Kinase activity is quantified by measuring ^33P incorporation by spotting an aliquot on P30 filters, washing in 50 mM phosphoric acid and scintillation counting.
(§5) In some cases, effects on c-Raf and B-Raf are assayed by SignalChem as follows. Protein kinase assays (in duplicate or triplicate) were performed at ambient temperature for 20-40 minutes in a final volume of 25 μl. The assay was initiated by the addition of ^33P-ATP and the reaction mixture incubated at ambient temperature for 20-40 minutes, depending on the protein kinase target. After the incubation period, the assay was terminated by spotting 10 μl of the reaction mixture onto Multiscreen phosphocellulose P81 plate. The Multiscreen phosphocellulose P81 plate was washed 3 times for approximately 15 minutes each in a 1% phosphoric acid solution.
(§6) The radioactivity on the P81 plate was counted in the presence of scintillation fluid in a Trilux scintillation counter. Blank control is included all the assay components except the addition of the appropriate substrate (replace with equal volume of assay dilution buffer), was set up for each protein kinase target. The corrected activity for each protein kinase target was determined by removing the blank control value.

c-Raf = biological target: T2, c-Raf (Homo sapiens, UniProt P04049); assay: In vitro kinase activity; type: biochemical; conditions: percentage of control assays without compound, mean of duplicate
T2 construct: in some cases SignalChem; host or cells: Sf9 insect cells (baculovirus)
T2 sequence (P04049 whole entry): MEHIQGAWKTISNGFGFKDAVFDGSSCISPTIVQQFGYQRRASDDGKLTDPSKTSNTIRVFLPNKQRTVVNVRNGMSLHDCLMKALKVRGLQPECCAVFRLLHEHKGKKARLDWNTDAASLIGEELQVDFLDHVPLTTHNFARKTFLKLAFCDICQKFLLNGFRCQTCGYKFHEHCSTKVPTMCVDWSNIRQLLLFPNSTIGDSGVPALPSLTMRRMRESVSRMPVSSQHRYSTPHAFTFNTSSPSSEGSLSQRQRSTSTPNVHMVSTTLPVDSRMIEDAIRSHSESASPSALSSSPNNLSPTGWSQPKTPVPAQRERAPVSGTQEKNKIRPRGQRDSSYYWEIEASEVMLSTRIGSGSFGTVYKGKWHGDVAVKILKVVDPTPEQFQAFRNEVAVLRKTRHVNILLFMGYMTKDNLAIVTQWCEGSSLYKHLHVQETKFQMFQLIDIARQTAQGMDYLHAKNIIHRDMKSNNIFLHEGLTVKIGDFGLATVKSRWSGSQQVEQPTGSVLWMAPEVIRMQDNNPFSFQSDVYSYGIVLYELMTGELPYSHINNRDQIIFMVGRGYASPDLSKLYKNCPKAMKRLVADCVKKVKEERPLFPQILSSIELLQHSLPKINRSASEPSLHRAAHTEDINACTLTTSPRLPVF
Procedure: as §1, §2, §3, §4, §5, §6

primary cortical neurons = assay: Aβ-induced death of primary cortical neurons; type: cell-based, rat; conditions: 5 uM aged Aβ25-35; viability 24 hours later
Procedure: Primary cultures of cortical neurons were cultured from embryonic day 18 rats. The cultures were treated 1-2 days later with 5 uM of aged Aβ peptide (Aβ25-35; purchased from Sigma-Aldrich). Neuronal viability was assayed 24 hours later.

[1] = test system: 3-NP-induced mouse model of Huntington's disease; assay: 3-nitropropionic acid (3-NP)-induced mouse model of Huntington's disease; type: in vivo
Procedure: 3-Nitropropionic acid administration and behavioral evaluation was done on 8-week old C57BL/6 male mice (Charles River Laboratories, Inc, Wilmington, Mass.) administered with 3-NP in ten intraperitoneal injections (50 mg/kg twice a day for 5 days) with or without HSB-13 (2 mg/kg). Injections of HSB-13 were performed 30 min before 3-NP administration. Control animals received saline injections. On the day following the 5 days of injection, locomotor activity was assessed using The TRU-SCAN® activity monitoring system (Coulborn Instruments, PA) as previously described (Chin et al., 2004; Chen et al., 2008b). The following behavioral parameters were selected: (1) Total movements time, (2) Total movement distance: the sum of all vectored X-Y coordinate changes in the floor plane, (3)Average distance per movement, (4) Mean velocity: the mean velocity of all X-T coordinate change defined movements. Following behavioral evaluation, the mice were deeply anesthetized and brains removed. The brains were fixed in 4% paraformaldehyde in 0.1 M phosphate buffer and cryoprotected in 20% sucrose in 0.1 M phosphate buffer. Coronal sections were cut on a cryostat at 40 microns and stained with cresyl violet (Sigma-Aldrich) as previously described (Chin et al., 2004; Chen et al., 2008b).
3-Nitropropionic acid administration and behavioral evaluation. 8-week old C57BL/6 male mice (Charles River Laboratories, Inc, Wilmington, Mass.) were administered with 3-NP in ten intraperitoneal injections (50 mg/kg twice a day for 5 days) with or without HSB-13 […]). Injections of HSB-13 were performed ˜30 min before 3-NP administration. Control animals received saline injections. On the day following the 5 days of injection, locomotor activity was assessed using THE TRU-SCAN® activity monitoring system (Coulborn Instruments, PA) as previously described (Chin et al. 2004). The following behavioral parameters were selected: (i) Total movements episodes: each movement in the floor plane is a series of coordinate changes with no rest for at least 1 sample interval, (2) Total movement distance: the sum of all vectored X-Y coordinate changes in the floor plane, and (3) Mean velocity: the mean velocity of all X-T coordinate change defined movements. Following behavioral evaluation, the mice were deeply anesthetized and brains removed. The brains were fixed in 4% paraformaldehyde in 0.1 M phosphate buffer and cryoprotected in 20% sucrose in 0.1 M phosphate buffer. Coronal sections were cut on a cryostat at 50 microns and stained with cresyl violet (Sigma).

T1 sequence (P15056 whole entry): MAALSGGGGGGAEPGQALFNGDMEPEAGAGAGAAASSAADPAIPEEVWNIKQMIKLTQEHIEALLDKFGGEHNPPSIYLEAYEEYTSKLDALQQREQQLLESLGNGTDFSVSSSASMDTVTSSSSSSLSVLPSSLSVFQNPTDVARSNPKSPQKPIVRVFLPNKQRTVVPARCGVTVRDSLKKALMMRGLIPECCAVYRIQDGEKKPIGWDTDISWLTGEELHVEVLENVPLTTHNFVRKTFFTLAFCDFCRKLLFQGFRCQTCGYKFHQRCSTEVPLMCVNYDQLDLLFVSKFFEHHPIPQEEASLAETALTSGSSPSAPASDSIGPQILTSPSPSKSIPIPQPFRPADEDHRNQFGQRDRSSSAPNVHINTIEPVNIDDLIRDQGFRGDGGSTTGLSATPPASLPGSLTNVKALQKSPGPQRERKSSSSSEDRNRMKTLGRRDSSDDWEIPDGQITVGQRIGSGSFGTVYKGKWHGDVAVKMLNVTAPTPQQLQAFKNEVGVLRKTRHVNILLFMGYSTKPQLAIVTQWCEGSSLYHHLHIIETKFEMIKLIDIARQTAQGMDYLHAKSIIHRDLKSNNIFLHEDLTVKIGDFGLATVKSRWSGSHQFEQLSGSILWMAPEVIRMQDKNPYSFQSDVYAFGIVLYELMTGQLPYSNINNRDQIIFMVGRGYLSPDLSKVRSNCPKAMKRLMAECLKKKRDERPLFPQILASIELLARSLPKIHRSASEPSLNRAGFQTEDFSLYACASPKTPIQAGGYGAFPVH

## O=C1Nc2ccccc2OC1=Cc1cc(Br)c(O)c(Br)c1 [ASK-2a]
B-Raf; 100 nM, 0.1 µM
  % ACTIVITY: 79%
B-Raf; 100 nM, listed as ASK2a, 0.1 µM
  % ACTIVITY: inhibited efficiently
c-Raf; 100 nM
  % ACTIVITY: 92%
c-Raf; 500 nM
  % ACTIVITY: 88%

## Nc1ccc2c(c1)NC(=O)/C(=C/c1cc(Br)c(O)c(Br)c1)O2 [HSB-13, (Z)-6-amino-2-(3,′5′-dibromo-4′-hydrozybenzylidene)-2H-benzo[b][1,4]oxazin-3(4H)-one]
Primary cortical neurons
  protection against Aβ toxicity: protects
[1]; HSB-13 2 mg/kg body weight, 30 min before each 3-NP injection (50 mg/kg i.p. twice a day, 5 days), FIG. 7A
  3-NP-induced striatal degeneration (cresyl violet histology): substantially reduced
[1]; HSB-13 2 mg/kg, versus 3-NP alone, 15 min period, FIG. 7B
  locomotor performance: total movement time, total movement distance, average distance per movement, mean velocity: markedly higher
[1]; HSB-13 2.5 mg/kg body weight, FIG. 10A
  3-NP-induced striatal degeneration (cresyl violet histology): substantially reduced
[1]; HSB-13 2.5 mg/kg, versus 3-NP alone, FIG. 10B
  locomotor performance: total movement episodes, total movement distance, mean velocity: markedly higher
B-Raf; 500 nM
  % ACTIVITY: 43%
c-Raf; 100 nM
  % ACTIVITY: 97%

Reference: US8680094B2, “1, 4-benzoxazine compounds and derivatives thereof as therapeutic drugs for the treatment of neurodegenerative conditions” (Board of Regents, The University of Texas System, priority 2008, dated 2014)
